Measurements reported in patent publication US9365588B2, “Benzoxazines as modulators of ion channels” (Vertex Pharmaceuticals Incorporated, priority 2011, dated 2016).

Target: human NaV 1.7 (Homo sapiens, UniProt Q15858)
Assay: E-VIPR optical membrane potential assay with electrical stimulation
Type: cell-based
Conditions: sodium channel inhibition; read-out: Binned Activity Data (IC50)
How it was run: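 Membrane-potential read-out: background-subtracted 460 nm/580 nm ratio during a 9 s current-controlled stimulus, 400 Hz scan. Before stimulation, NaV1.7-HEK cells carried coumarin/oxonol dye and compound (final DMSO 0.625%) for 20–35 min at room temperature; tetracaine 125 μM served as positive control.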

Sequence of human NaV 1.7 (Q15858 whole entry): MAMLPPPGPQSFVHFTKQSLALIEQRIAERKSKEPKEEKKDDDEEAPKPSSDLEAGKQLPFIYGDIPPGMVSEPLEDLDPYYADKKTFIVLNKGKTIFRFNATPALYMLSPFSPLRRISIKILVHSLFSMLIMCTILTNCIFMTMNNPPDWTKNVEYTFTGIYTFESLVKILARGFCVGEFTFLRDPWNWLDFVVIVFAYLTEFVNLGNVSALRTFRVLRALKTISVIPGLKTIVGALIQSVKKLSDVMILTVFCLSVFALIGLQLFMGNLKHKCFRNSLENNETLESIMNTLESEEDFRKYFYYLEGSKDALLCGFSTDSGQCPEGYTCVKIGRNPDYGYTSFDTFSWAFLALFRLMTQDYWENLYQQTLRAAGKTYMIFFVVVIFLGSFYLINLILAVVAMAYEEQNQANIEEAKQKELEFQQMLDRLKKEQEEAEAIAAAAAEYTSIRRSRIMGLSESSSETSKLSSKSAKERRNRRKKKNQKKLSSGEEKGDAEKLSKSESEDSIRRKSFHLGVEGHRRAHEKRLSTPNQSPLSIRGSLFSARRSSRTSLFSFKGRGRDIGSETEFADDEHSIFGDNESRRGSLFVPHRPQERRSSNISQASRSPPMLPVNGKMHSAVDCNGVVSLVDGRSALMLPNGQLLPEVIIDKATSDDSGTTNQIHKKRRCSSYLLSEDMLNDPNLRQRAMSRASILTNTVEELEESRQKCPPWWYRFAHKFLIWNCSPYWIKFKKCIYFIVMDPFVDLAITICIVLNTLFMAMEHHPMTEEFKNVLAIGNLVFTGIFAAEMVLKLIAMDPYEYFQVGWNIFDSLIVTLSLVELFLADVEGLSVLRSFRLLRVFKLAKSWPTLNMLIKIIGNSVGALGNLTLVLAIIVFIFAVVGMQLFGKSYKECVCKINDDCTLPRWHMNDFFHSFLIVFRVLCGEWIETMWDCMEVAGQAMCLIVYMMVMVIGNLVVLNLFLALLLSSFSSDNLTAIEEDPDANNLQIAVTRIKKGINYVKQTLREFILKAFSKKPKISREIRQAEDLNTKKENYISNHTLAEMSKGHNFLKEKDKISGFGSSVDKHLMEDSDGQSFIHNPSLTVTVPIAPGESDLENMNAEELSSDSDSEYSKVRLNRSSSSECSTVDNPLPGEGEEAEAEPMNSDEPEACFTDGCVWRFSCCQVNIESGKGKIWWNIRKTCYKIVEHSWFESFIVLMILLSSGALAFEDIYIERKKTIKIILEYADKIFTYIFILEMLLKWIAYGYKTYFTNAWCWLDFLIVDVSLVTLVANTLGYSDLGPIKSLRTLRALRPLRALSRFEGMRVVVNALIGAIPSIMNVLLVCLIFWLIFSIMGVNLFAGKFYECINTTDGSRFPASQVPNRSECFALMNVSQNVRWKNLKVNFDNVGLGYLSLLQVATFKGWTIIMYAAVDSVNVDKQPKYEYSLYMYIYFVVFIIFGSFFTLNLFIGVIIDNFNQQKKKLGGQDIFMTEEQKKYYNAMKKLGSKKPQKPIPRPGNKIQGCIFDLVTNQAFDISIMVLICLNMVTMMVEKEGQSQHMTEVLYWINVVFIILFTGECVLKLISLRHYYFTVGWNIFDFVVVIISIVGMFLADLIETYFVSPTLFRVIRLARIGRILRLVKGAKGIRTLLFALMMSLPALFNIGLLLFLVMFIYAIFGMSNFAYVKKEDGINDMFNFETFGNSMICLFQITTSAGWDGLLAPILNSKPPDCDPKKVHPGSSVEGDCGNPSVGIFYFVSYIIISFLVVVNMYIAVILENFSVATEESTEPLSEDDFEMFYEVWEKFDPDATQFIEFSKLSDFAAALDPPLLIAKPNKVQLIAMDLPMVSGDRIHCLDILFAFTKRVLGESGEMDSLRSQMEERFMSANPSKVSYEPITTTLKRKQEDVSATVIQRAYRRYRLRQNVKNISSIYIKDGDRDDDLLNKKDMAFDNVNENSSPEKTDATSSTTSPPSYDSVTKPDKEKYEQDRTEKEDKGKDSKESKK

| Compound | IC50 [nM] |
| --- | --- |
| CC(C)(N)c1ccc(C(=O)N2CCC3(CC2)Oc2ccccc2-n2c(C#N)ccc23)cc1 [Compound 323] | 2000 to 5000 |
| CC(C)(C)S(=O)(=O)c1ccc(C(=O)N2CCC3(CC2)Oc2ccccc2-n2cccc23)cc1 [Compound 327] | ≤ 2000 |
| O=C(c1cccnc1Oc1ccccc1)N1CCC2(CC1)Oc1ccccc1-n1c(C(F)(F)F)ccc12 [Compound 330] | ≤ 2000 |
| CN(C)CCOc1ccc(C(=O)N2CCC3(CC2)Oc2ccccc2-n2cccc23)cc1C(F)(F)F [Compound 333] | ≤ 2000 |
| CC(C)(Oc1ccc(C(=O)N2CCC3(CC2)Oc2ccccc2-n2c(C#N)ccc23)cc1)C(=O)O [Compound 334] | > 5000 |
| O=C(c1ccccc1OC(F)F)N1CCC2(CC1)Oc1ccccc1-c1c2cnn1C(F)(F)F [Compound 337] | ≤ 2000 |
| Cc1cc(C(=O)N2CCC3(CC2)Oc2cc(C#N)ccc2-n2cccc23)ccc1OC(C)C [Compound 338] | ≤ 2000 |
| O=C(c1ccc(OC(F)F)cc1)N1CCC2(CC1)Oc1ccccc1-n1c(C(F)(F)F)ccc12 [Compound 341] | > 5000 |
| COc1cc(C(=O)N2CCC3(CC2)Oc2ccccc2-n2cccc23)ccc1OC1CCCC1 [Compound 342] | ≤ 2000 |
| N#Cc1ccccc1C(=O)N1CCC2(CC1)Oc1cc(Cl)ccc1-n1cccc12 [Compound 343] | > 5000 |
| COc1cc(C(=O)N2CCC3(CC2)Oc2cc(Cl)ccc2-n2cccc23)ccc1O[C@@H]1CCC[C@H]1O [Compound 348] | ≤ 2000 |
| Cc1ccc(C(=O)N2CCC3(CC2)Oc2cc(F)ccc2-n2cccc23)cc1C [Compound 349] | ≤ 2000 |
| CC(=O)c1ccc2n1-c1ccccc1OC21CCN(C(=O)c2ccc(S(C)(=O)=O)c(C)c2)CC1 [Compound 357] | ≤ 2000 |
| CC(=O)c1ccc2n1-c1ccccc1OC21CCN(C(=O)c2ccccc2OC(F)F)CC1 [Compound 360] | ≤ 2000 |
| CCCOc1ccc(C(=O)N2CCC3(CC2)Oc2ccccc2-n2cccc23)cc1C#N [Compound 361] | ≤ 2000 |
| Cc1cc(C(=O)N2CCC3(CC2)Oc2ccccc2-n2c(C#N)ccc23)ccc1S(=O)(=O)C(C)C [Compound 363] | ≤ 2000 |
| CC(C)(O)c1ccc(C(=O)N2CCC3(CC2)Oc2ccccc2-n2c(C#N)ccc23)cc1CO [Compound 364] | ≤ 2000 |
| COc1cc(C(=O)N2CCC3(CC2)Oc2cc(Cl)ccc2-n2cccc23)ccc1OC1CCC(O)C1 (stereo not shown) [Compound 366] | ≤ 2000 |
| O=C(c1cccc(C(F)(F)F)c1)N1CCC2(CC1)Oc1cc(Cl)ccc1-n1cccc12 [Compound 367] | ≤ 2000 |

| Compound | IC50 [nM] |
| --- | --- |
| Cc1ccc2c(c1)OC1(CCN(C(=O)c3ccc(OC(C)C)c(CO)c3)CC1)c1ccc(C#N)n1-2 [Compound 375] | ≤ 2000 |
| CC(C)Oc1ccc(C(=O)N2CCC3(CC2)Oc2ccccc2-n2cccc23)cc1C(F)(F)F [Compound 376] | ≤ 2000 |
| CCc1ccc(C(=O)N2CCC3(CC2)Oc2cc(F)ccc2-n2cccc23)cc1C [Compound 377] | ≤ 2000 |
| CC(=O)c1ccc2n1-c1ccccc1OC21CCN(C(=O)c2ccc(C(C)(C)O)cc2)CC1 [Compound 379] | ≤ 2000 |
| Cn1cc2c(n1)-c1ccccc1OC21CCN(C(=O)c2cccc(F)c2OC(F)F)CC1 [Compound 388] | ≤ 2000 |
| COc1ccc(C(=O)N2CCC3(CC2)Oc2cc(Cl)ccc2-n2c(C#N)ccc23)cc1C(F)(F)F [Compound 392] | ≤ 2000 |
| Cc1nc2cccc(C(=O)N3CCC4(CC3)Oc3cc(Cl)ccc3-n3cccc34)c2o1 [Compound 393] | ≤ 2000 |
| N#Cc1ccc2n1-c1ccccc1OC21CCN(C(=O)c2ccccc2C(F)F)CC1 [Compound 401] | ≤ 2000 |
| CC(C)(C)S(=O)(=O)c1ccc(C(=O)N2CCC3(CC2)Oc2ccccc2-n2c3ccc2S(C)(=O)=O)cc1 [Compound 404] | ≤ 2000 |
| Cn1ccc(C(=O)N2CCC3(CC2)Oc2ccccc2-n2cccc23)cc1=O [Compound 405] | > 5000 |
| C[C@@](O)(CO)c1ccc(C(=O)N2CCC3(CC2)Oc2ccccc2-n2c(C#N)ccc23)cc1 [Compound 406] | ≤ 2000 |
| Cc1cc(C(=O)N2CCC3(CC2)Oc2ccccc2-n2c(C#N)ccc23)ccc1OC(C)(C)C(=O)O [Compound 408] | 2000 to 5000 |
| O=C(c1ccccc1OC(F)F)N1CCC2(CC1)Oc1ccccc1-c1[nH]ncc12 [Compound 409] | > 5000 |
| CN(C)CCOc1ccc(C(=O)N2CCC3(CC2)Oc2cc(F)ccc2-n2cccc23)cc1C(F)(F)F [Compound 411] | > 5000 |
| Cc1cc(C(=O)N2CCC3(CC2)Oc2ccccc2-n2c(C(F)(F)F)ccc23)ccc1S(=O)(=O)N(C)C [Compound 413] | ≤ 2000 |
| Cc1cc(C(=O)N2CCC3(CC2)Oc2ccccc2-n2cccc23)ccc1OC(C)C [Compound 415] | ≤ 2000 |
| Cc1cc(C(=O)N2CCC3(CC2)Oc2cccc(F)c2-n2c(C#N)ccc23)ccc1OC(C)C [Compound 416] | ≤ 2000 |
| COc1cc(C(=O)N2CCC3(CC2)Oc2cc(Cl)ccc2-n2cccc23)ccc1C(C)(C)CO [Compound 417] | ≤ 2000 |
| CC(C)(C)c1ccc(C(=O)N2CCC3(CC2)Oc2ccccc2-n2cccc23)cc1C#N [Compound 419] | ≤ 2000 |

Second part, the compound after the results:

| IC50 [nM] | Compound |
| --- | --- |
| > 5000 | Cc1nc2ccc(C(=O)N3CCC4(CC3)Oc3ccccc3-c3c4cnn3C)cc2s1 [Compound 324] |
| 2000 to 5000 | Cn1cc2c(n1)-c1ccccc1OC21CCN(C(=O)c2ccc3nc(N)sc3c2)CC1 [Compound 325] |
| ≤ 2000 | CC[C@H](C)Oc1ccc(C(=O)N2CCC3(CC2)Oc2ccccc2-n2cccc23)cc1OC [Compound 326] |
| ≤ 2000 | COc1c(F)cccc1C(=O)N1CCC2(CC1)Oc1cc(Cl)ccc1-c1c2cnn1C [Compound 328] |
| > 5000 | Cn1ncc2c1-c1ccccc1OC21CCN(C(=O)c2csc(-c3ccccc3)n2)CC1 [Compound 331] |
| ≤ 2000 | COc1cc(S(=O)(=O)C(C)C)ccc1C(=O)N1CCC2(CC1)Oc1ccccc1-c1c2cnn1C [Compound 336] |
| ≤ 2000 | Cn1ncc2c1-c1cc(F)ccc1OC21CCN(C(=O)c2ccccc2OC(F)F)CC1 [Compound 340] |
| ≤ 2000 | Cn1ncc2c1-c1ccccc1OC21CCN(C(=O)c2cccc3c2OC(F)(F)O3)CC1 [Compound 345] |
| ≤ 2000 | Cn1ncc2c1-c1ccccc1OC21CCN(C(=O)c2cccc3c2OCCO3)CC1 [Compound 346] |
| ≤ 2000 | CCc1ccc(C(=O)N2CCC3(CC2)Oc2ccccc2-n2c(C(F)(F)F)ccc23)cc1OC [Compound 347] |
| ≤ 2000 | Cn1ncc2c1-c1ccccc1OC21CCN(C(=O)c2cccc3c2OC(C)(C)C3)CC1 [Compound 350] |
| ≤ 2000 | CCCOc1ccc(C(=O)N2CCC3(CC2)Oc2ccccc2-n2cccc23)cc1OC [Compound 352] |
| > 5000 | COc1ccc(F)c(F)c1C(=O)N1CCC2(CC1)Oc1ccccc1-c1c2cnn1C [Compound 353] |
| ≤ 2000 | COc1ccc(C(=O)N2CCC3(CC2)Oc2ccccc2-c2c3cnn2C)c(OC)c1OC [Compound 355] |
| 2000 to 5000 | COc1ccc(OC)c(C(=O)N2CCC3(CC2)Oc2ccccc2-c2c3cnn2C)c1 [Compound 358] |
| ≤ 2000 | Cc1cc(C(=O)N2CCC3(CC2)Oc2ccccc2-n2c(C)ccc23)ccc1OC(C)C [Compound 359] |
| ≤ 2000 | COc1cc(C(=O)N2CCC3(CC2)Oc2ccccc2-c2c3cnn2C)ccc1OCCC(C)C [Compound 362] |
| ≤ 2000 | Cn1ncc2c1-c1ccccc1OC21CCN(C(=O)c2ccc3c(c2)C(C)(C)CO3)CC1 [Compound 369] |
| ≤ 2000 | Cc1cc(C(=O)N2CCC3(CC2)Oc2cc(Cl)ccc2-c2c3cnn2C)ccc1OC(C)C [Compound 370] |

| IC50 [nM] | Compound |
| --- | --- |
| ≤ 2000 | CCn1ncc2c1-c1ccccc1OC21CCN(C(=O)c2ccc(C(C)(C)C)c(OC)c2)CC1 [Compound 372] |
| ≤ 2000 | COc1cc(C(=O)N2CCC3(CC2)Oc2cc(Cl)ccc2-n2cccc23)ccc1OCC(N)=O [Compound 373] |
| ≤ 2000 | COc1cc(C(=O)N2CCC3(CC2)Oc2cc(F)ccc2-n2cccc23)ccc1OCC(C)(C)OC [Compound 378] |
| ≤ 2000 | Cn1ncc2c1-c1ccccc1OC21CCN(C(=O)c2ccccc2OC(F)F)CC1 [Compound 381] |
| ≤ 2000 | Cn1ncc2c1-c1cc(F)ccc1OC21CCN(C(=O)c2ccccc2OC(F)(F)F)CC1 [Compound 382] |
| ≤ 2000 | COc1ccccc1C(=O)N1CCC2(CC1)Oc1ccc(F)cc1-c1c2cnn1C [Compound 383] |
| > 5000 | COc1cnccc1C(=O)N1CCC2(CC1)Oc1ccccc1-c1c2cnn1C [Compound 384] |
| ≤ 2000 | CCCOc1ccc(C(=O)N2CCC3(CC2)Oc2ccccc2-c2c3cnn2C)cc1C(F)(F)F [Compound 387] |
| 2000 to 5000 | COCCOc1ccc(C(=O)N2CCC3(CC2)Oc2ccccc2-c2c3cnn2CC(F)(F)F)cc1OC [Compound 391] |
| ≤ 2000 | CCc1ccc(C(=O)N2CCC3(CC2)Oc2ccccc2-n2cc(C)cc23)cc1OC [Compound 395] |
| ≤ 2000 | COc1cc(C(=O)N2CCC3(CC2)Oc2ccccc2-c2c3cnn2C)ccc1O [Compound 396] |
| 2000 to 5000 | COc1cc(C(=O)N2CCC3(CC2)Oc2ccccc2-n2c(C#N)ccc23)ccc1OC[C@H](O)CO [Compound 398] |
| ≤ 2000 | COc1cc(C(=O)N2CCC3(CC2)Oc2ccccc2-n2cccc23)ccc1C(C)(C)OC [Compound 399] |
| ≤ 2000 | COc1cc(C(=O)N2CCC3(CC2)Oc2cc(Cl)ccc2-n2cccc23)ccc1OC[C@H](C)OC [Compound 407] |
| ≤ 2000 | CCn1ncc2c1-c1ccccc1OC21CCN(C(=O)c2ccc(OC(C)C)c(C)c2)CC1 [Compound 410] |
| ≤ 2000 | Cc1cc(C(=O)N2CCC3(CC2)Oc2cccnc2-c2c3cnn2C)ccc1OC(C)C [Compound 414] |
| 2000 to 5000 | Cn1ncc2c1-c1ccccc1OC21CCN(C(=O)c2ccc(C3(O)COC3)cc2)CC1 [Compound 418] |
| ≤ 2000 | COCCOc1ccc(C(=O)N2CCC3(CC2)Oc2ccccc2-c2c3cnn2C)cc1OC [Compound 420] |
| 2000 to 5000 | Cn1ncc2c1-c1ccccc1OC21CCN(C(=O)c2ccc3c(c2)OC(C)(C)C3)CC1 [Compound 422] |
